The source of these data is US6525211B1, “Herbicidal sulphonylamino(thio)carbonyl compounds” (Bayer Aktiengesellschaft, priority 1995, dated 2003).

The subject of data set [1] is broad-leaved weeds. Put plainly: Pre-emergence test (Example A). Type of data set: in vivo. The conditions noted are these: soil watered with preparation 24 hours after sowing, rated after three weeks vs untreated control (0%=no action, 100%=total destruction). As to the method: Solvent: 5 parts by weight of acetone
Emulsifier: 1 part by weight of alkylaryl polyglycol ether
(§1) To produce a suitable preparation of active compound, 1 part by weight of active compound is mixed with the stated amount of solvent, the stated amount of emulsifier is added and the concentrate is diluted with water to the desired concentration.
Seeds of the test plants are sown in normal soil, and, after 24 hours, the soil is watered with the preparation of the active compound. It is expedient to keep constant the amount of water per unit area. The concentration of the active compound in the preparation is of no importance, only the amount of active compound applied per unit area being decisive.
After three weeks, the degree of damage to the plants is rated in % damage in comparison to the development of the untreated control. The figures denote:
(§2) 0%=no action (like untreated control) 100%=total destruction

Data set [2] has as its system broad-leaved weeds. The data set can be described thus: Post-emergence test (Example B). Type of data set: in vivo. The conditions noted are these: test plants of 5-15 cm height sprayed, 2,000 l water/ha, rated after three weeks vs untreated control (0%=no action, 100%=total destruction). Here is the method: as §1
Test plants which have a height of 5-15 cm are sprayed with the preparation of the active compound in such a way as to apply the particular amounts of active compound desired per unit area. The concentration of the spray liquor is chosen so that the particular amounts of active compound desired are applied in 2,000 1 of water/ha. After three weeks, the degree of damage to the plants is rated in % damage in comparison to the development of the untreated control.
as §2

A word on the melting point: it is the temperature, or range, at which the solid turns liquid.

SMILES strings stand for the structures.

Turning to `CCOc1nn(C(=O)NS(=O)(=O)c2c(C)cccc2OC(C)C)c(=O)n1C` [Example 1, 5-ethoxy-4-methyl-2-(2-isopropoxy-6-methyl-phenylsulphonyl-aminocarbonyl)-2,4-dihydro-3H-1,2,4-triazol-3-one], the “action against broad-leaved weeds (degree of damage to the plants)” value in the data set on broad-leaved weeds [1] and with broad-leaved weeds [2] was “very strong action” in each case. As to `CCOc1cccc(C)c1S(=O)(=O)NC(=O)n1nc(OCC)n(C)c1=O` [Example 9, 5-ethoxy-4-methyl-2-(2-ethoxy-6-methyl-phenylsulphonylaminocarbonyl)-2,4-dihydro-3H-1,2,4-triazol-3-one], the melting point was found to be 162 °C.
